Results as given in patent publication US9125415B2, “Thiophene based oligomers as light activated biocides” (STC, UNM, priority 2011, dated 2015).
Marks after values point to notes of the source that are not given here.

Legend:
[1] = test system: Staphylococcus aureus (ATCC 10832); experiment: Antibacterial studies, dead/live assay by flow cytometry (SYTO21 / propidium iodide); format: cell-based; conditions: for dark antibacterial activity / dark toxicity (in words) / light-dependent toxicity versus the bacterial cells (in words) / percentage of killed S. aureus cells: 1 μg/mL oligomer; for dark antibacterial activity / dark toxicity (in words) / light-dependent toxicity versus the bacterial cells (in words): up to 90 min
From the text: There has been an increasing interest in the prevention of staphylococcal infections because of the increasing number of infections caused by methicillin-resistant S. aureus (MRSA), which is the most common cause of hospital-acquired infections. Our previous studies with oligo (phenylene ethynylene) type oligomers have clearly established that these oligomers are effective against variety of bacteria in the presence of light. […] As our objective is to develop visible light activated biocidal oligomers, we investigated the antibacterial activity of compounds 4a-c and against Staphylococcus aureus (S. aureus). After oligomer solutions were incubated with S. aureus under visible light illumination or in the dark, the antibacterial effect of the three oligomers was evaluated at time 0, 15, 30, 45, 60, and 90 min by flow cytometry analysis after staining the bacterial suspensions with live/dead fluorescent dyes (SYTO21, green fluorescence=live, and propidium iodide, red fluorescence=dead). FIGS. 7 and 8 show plots of the percentage of dead bacteria cells versus light exposure time of the thiophene-based oligomeric series at […]. […] The antibacterial efficiency of three oligomers increases with increasing irradiation time. In the control sample where oligomers were not added to the bacterial suspension most cells (>90% as shown in flow cytometry data) were viable and appear green fluorescence. Dark antibacterial activity was not observed from 4a and 4b; however, 4c kills ˜27% of bacteria after 90 min of incubation of bacteria with 4c.
Staphylococcus aureus (ATCC 10832, American Type Culture Collection) was grown in Brain Heart Infusion (BHI, Difco) and stored at […] with 20% (v/v) glycerol (EMD) before use. Stock cultures maintained on agar plates (2%, Difco) were used to inoculate 50 mL cultures in liquid BHI. The cultures were incubated at 37° C. for 18 hours. The bacteria were then centrifuged and washed twice with 0.85% NaCl followed by counting in a hemocytometer to normalize bacterial concentration in 20 mL of 0.85% NaCl (8×10^6 cells/mL) for antibacterial tests. Control samples containing only bacterial cells, and desired concentrations of oligomer/bacteria mixture samples were exposed to the visible light for 15, 30, 45, 60 and 90 min in a LuzChem ORG photoreactor using Sylvania T5 bulbs (λ=350-799 nm). Another set of samples were incubated in the dark for 15, 30, 45, 60 and 90 min. Then dead/live assays were conducted using SYTO21 (green fluorescence=live) and propidium iodide (red fluorescence=dead) purchased from Invitrogen. After bacteria were incubated with the oligomers in the light and dark conditions, a 1:1 ratio of dyes (2.4 μL) were added to the samples and kept in the dark for 15 min. Finally, the bacteria were examined using an Accuri C6 flow cytometer where 2×10^4 cells were analyzed from 8×10^6 cell solution. The number of live cells and dead cells corresponding to green and red fluorescence respectively were counted and compared by flow cytometry. Results are shown graphically in FIGS. 7 and 8.

[2] = Singlet oxygen quantum yield (sensitization, emission at 1260 nm); format: physicochemical; conditions: CD3OD; 2′-acetonaphthone (ΦΔ = 0.79) as actinometer
From the text: The important and necessary feature of the biocidal agents triggered by light is their ability to sensitize the formation of singlet oxygen. Having established the formation of triplet state by direct excitation of the oligomers 4a and 4b (but not 4c), we determined their ability to sensitize singlet oxygen in deuterated methanol (ΦΔ, Table 1). […] From the above results it is evident that the oligomer with terthiophene back bone is the most efficient sensitizer for singlet oxygen.
(§1) NMR spectra were recorded using a Varian VXR-300 FT-NMR, operating at 300 MHz for ^1H NMR and at 75.4 MHz for ^13C NMR. UV-Visible spectra were recorded using a Varian Cary 100 dual beam spectrophotometer. Corrected steady-state fluorescence spectra were obtained with a PTI spectrometer. A 1 cm square quartz cuvette was used for solution spectra, and emission was collected at 90° relative to excitation beam. Fluorescence quantum yields are reported relative to known standards. The optical density of solutions at the excitation wavelength was ≦0.1, and corrections were applied for differences in the refractive index of standard and sample solutions. Transient absorption spectra were collected using a laser systems that is described elsewhere.^17,18 The optical density of the solutions was adjusted to ˜0.7 at the excitation wavelength (355 nm) with the laser energy set at 6-7 mJ. Solutions were purged with argon for 45 min before making transient absorption spectroscopy measurements. Singlet oxygen quantum yields were measured using a Photon Technology International Quantamaster near-IR spectrophotometer equipped with an InGaAs photodiode detector, optical chopper and a lock in amplifier.

[3] = UV-Visible absorption spectra; format: physicochemical; conditions: for λmax (absorption): MeOH; for λmax (Absorption/nm): Water
Description: as §1

[4] = Fluorescence lifetime; format: physicochemical; conditions: component amplitude in brackets
[5] = test system: Staphylococcus aureus (ATCC 10832); experiment: Antibacterial studies, dead/live assay by flow cytometry (SYTO21 / propidium iodide); format: cell-based; conditions: visible light substituted with UV light
[6] = Steady-state fluorescence spectra and fluorescence quantum yields relative to known standards; format: physicochemical
Description: as §1

[7] = Transient absorption spectroscopy (triplet excited state); format: physicochemical; conditions: for TTAbs (ΔA, t = 0): methanol, Abs=0.7 at λex, λex=355 nm for 4a and 4b, 425 nm for 4c, immediately following the laser pulse
Description: Transient absorption experiments were carried out both in methanol and in water (excitation at 355 nm, 5 ns pulse, […] fluence). […] The important photophysical data obtained in methanol solution are consolidated in Table 1 (see supporting information for data in aqueous solution). FIGS. 5 and 6 compare transient absorption difference spectra obtained immediately following the laser pulse in methanol. […] Pulse energy and ground state absorption matched. […] The response curves from each of the repetitive time increments is indicated by sequential numbers 1-8 in both FIGS. 6A and 6B. Samples were purged with argon for 45 min before the measurements. A higher life time is observed for the triplet excited state in water than in methanol.
as §1

[8] = visible light, 90 min of irradiation
[9] = MeOH, quinine sulfate in 0.1M sulfuric acid (ΦF = 0.54) as actinometer
[10] = Water, quinine sulfate in 0.1M sulfuric acid (ΦF = 0.54) as actinometer

λmax (Absorption/nm) [3] | λmax (fluorescence) ([6]; MeOH) | λmax (Fluorescence/nm) ([6]; Water) | TTAbs (λ/nm)/MeOH [7] | TTAbs (λ/nm) in Water ([7]; Water) | SMILES | dark antibacterial activity / dark toxicity (in words) ([1]; dark) | light-dependent toxicity versus the bacterial cells (in words) ([1]; visible light) | percentage of killed S. aureus cells [1, 8] | ΦΔ (singlet oxygen quantum yield) [2] | λmax (absorption) [3] | ΦF (fluorescence quantum yield) [6, 9] | ΦF (fluorescence quantum yield) [6, 10] | TTAbs (ΔA, t = 0) [7] | other results
385 nm | 460 nm | 460 nm | 492 nm | 492 nm | Cn1nc2c(-c3ccc(CCC[N+](C)(C)C)s3)ccc(-c3ccc(CCC[N+](C)(C)C)s3)c2n1.[Cl-].[Cl-] [4b] | not observed | marked light-dependent toxicity | about 35% | 0.49 ± 0.03 | 390 nm | 0.51 ± 0.02 | 0.340 ± 0.02 | 0.39 | 
454 nm | 615 nm | 610 nm | 529 nm | 529 nm | C[N+](C)(C)CCCc1ccc(-c2ccc(-c3ccc(CCC[N+](C)(C)C)s3)c3nsnc23)s1.[Cl-].[Cl-] [4c] | significant dark toxicity | marked light-dependent toxicity | about 35% | no singlet oxygen emission was detected |  |  |  |  | percentage of killed S. aureus cells ([1]; dark, 90 min of incubation): ~27%; ΦF (fluorescence quantum yield) ([6]; MeOH, fluorescein in 0.1M NaOH (ΦF = 0.92) as actinometer): 0.23 ± 0.02^b

SMILES | λmax (Absorption/nm) [3] | λmax (fluorescence) ([6]; MeOH) | λmax (Fluorescence/nm) ([6]; Water) | TTAbs (λ/nm)/MeOH [7] | TTAbs (λ/nm) in Water ([7]; Water) | dark antibacterial activity / dark toxicity (in words) ([1]; dark) | light-dependent toxicity versus the bacterial cells (in words) ([1]; visible light) | percentage of killed S. aureus cells [1, 8] | ΦΔ (singlet oxygen quantum yield) [2] | λmax (absorption) [3] | ΦF (fluorescence quantum yield) [6, 9] | ΦF (fluorescence quantum yield) [6, 10] | TTAbs (ΔA, t = 0) [7] | other results
C[N+](C)(C)CCCc1ccc(-c2ccc(-c3ccc(CCC[N+](C)(C)C)s3)s2)s1.[Cl-].[Cl-] [4a] | 368 nm | 437 nm | 437 nm | 467 nm | 467 nm | not observed | marked light-dependent toxicity | ~93% | 0.74 ± 0.02 | 364 nm | 0.06 ± 0.02 | 0.058 ± 0.02 | 0.55 | biocidal activity at higher concentrations (in words) ([1]; in the presence of light, 5 and 10 μg/mL): virtually eliminates the bacterial population within a few minutes; concentration at which the compound is an effective biocide ([1]; in the presence of light, within 30 minutes): ≥ 1 µg/mL; shift of absorption in water compared to methanol ([3]; red shift for 4a, blue shift for 4b and 4c): ~4 nm; τF/ns (MeOH) ([4]; MeOH, 4a at 450 nm): 0.18 ns; τF/ns (Water) ([4]; Water, 4a 450 nm, 4b 500 nm, 4c 600 nm): 0.19 ns; light activated antibacterial activity under UV light (in words) [5]: the most efficient compound in killing bacteria in the presence of light; TTAbs (ΔA, t = 0) in Water ([7]; Water): 0.43; τtriplet (μs) in Water ([7]; Water): 17.9 μs
